Values joined by “and” are separate entries in the source; they are usually repeats but may differ in a detail not shown here. Identical values can stand only once.
Test system: A498 complex spheroid viability
Assay: Anticancer human tumor A498 cell line growth inhibition;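 note: spheroids exposed to agents for seven days before readout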;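 for viability, T/C: 100% = DMSO vehicle-treated spheroids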
Settings: for viability, T/C: stronger effect = lower value; active = viability on the fitted dose curve at most 10% of control; inactive = the rest
Outline: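 Multicellular complex spheroids of tumor cells with human endothelial cells (HUVEC) and mesenchymal stem cells; the LSD1 inhibitor iadademstat was combined with standard-of-care or investigational agents. Top concentration at or near clinical Cmax, half-log dilutions; final DMSO ≤0.25%.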

[1] = curve of first compound, second compound 0.1 µM
[2] = curve of first compound, second compound 0.316 µM
[3] = curve of first compound, second compound 1 µM
[4] = curve of first compound, second compound 3.16 µM
[5] = curve of first compound, second compound 10 µM

CC(C)CC(NC(=O)CNC(=O)c1cc(Cl)ccc1Cl)B1OC(=O)CC(CC(=O)O)(C(=O)O)O1 (configuration not stated) + NC1CC1c1ccc(-c2cccc(O)c2)cc1
active: viability, T/C (second compound 0.1 µM, first compound 0.0316 µM) 5.77% | viability, T/C (second compound 0.1 µM, first compound 0.1 µM) 2.14% | viability, T/C (second compound 0.316 µM, first compound 0.0316 µM) 5.27% | viability, T/C (second compound 0.316 µM, first compound 0.1 µM) 1.97% | viability, T/C (second compound 1 µM, first compound 0.0316 µM) 3.81% | viability, T/C (second compound 1 µM, first compound 0.1 µM) 1.83% | viability, T/C (second compound 3.16 µM, first compound 0.0316 µM) 3.71% | viability, T/C (second compound 3.16 µM, first compound 0.1 µM) 1.96% | viability, T/C (second compound 10 µM, first compound 0.0316 µM) 2.82% | viability, T/C (second compound 10 µM, first compound 0.1 µM) 1.07%
4.8 nM: IC50 [2]
inactive: viability, T/C (second compound 0.1 µM, first compound 0.000316 µM) 93.7% | viability, T/C (second compound 0.1 µM, first compound 0.001 µM) 96.5% | viability, T/C (second compound 0.1 µM, first compound 0.00316 µM) 60% | viability, T/C (second compound 0.1 µM, first compound 0.01 µM) 18.1% | viability, T/C (second compound 0.316 µM, first compound 0.000316 µM) 106% | viability, T/C (second compound 0.316 µM, first compound 0.001 µM) 114% | viability, T/C (second compound 0.316 µM, first compound 0.00316 µM) 68.1% | viability, T/C (second compound 0.316 µM, first compound 0.01 µM) 17.3% | viability, T/C (second compound 1 µM, first compound 0.000316 µM) 96.6% | viability, T/C (second compound 1 µM, first compound 0.001 µM) 102% | viability, T/C (second compound 1 µM, first compound 0.00316 µM) 62.9% | viability, T/C (second compound 1 µM, first compound 0.01 µM) 16.8% | viability, T/C (second compound 3.16 µM, first compound 0.000316 µM) 91.8% | viability, T/C (second compound 3.16 µM, first compound 0.001 µM) 94.4% | viability, T/C (second compound 3.16 µM, first compound 0.00316 µM) 61% | viability, T/C (second compound 3.16 µM, first compound 0.01 µM) 16.9% | viability, T/C (second compound 10 µM, first compound 0.000316 µM) 98.4% | viability, T/C (second compound 10 µM, first compound 0.001 µM) 92.1% | viability, T/C (second compound 10 µM, first compound 0.00316 µM) 51.7% | viability, T/C (second compound 10 µM, first compound 0.01 µM) 15.6%
4.44 nM: IC50 [3]
4.26 nM: IC50 [1]
4.29 nM: IC50 [4]
3.46 nM: IC50 [5]

CCc1c2c(nc3ccc(O)cc13)-c1cc3c(c(=O)n1C2)COC(=O)[C@]3(O)CC + NC1CC1c1ccc(-c2cccc(O)c2)cc1
< 0.949 nM: IC50 [1] | IC50 [2] | IC50 [3] | IC50 [4] | IC50 [5]
active: viability, T/C (second compound 0.1 µM, first compound 0.03 µM) 0.69% | viability, T/C (second compound 0.1 µM, first compound 0.0949 µM) 0.04% | viability, T/C (second compound 0.1 µM, first compound 0.3 µM) 0.13% | viability, T/C (second compound 0.316 µM, first compound 0.03 µM) 1.05% | viability, T/C (second compound 0.316 µM, first compound 0.0949 µM) 0.04% | viability, T/C (second compound 0.316 µM, first compound 0.3 µM) 0.13% | viability, T/C (second compound 1 µM, first compound 0.03 µM) 0.94% | viability, T/C (second compound 1 µM, first compound 0.0949 µM) 0.05% | viability, T/C (second compound 1 µM, first compound 0.3 µM) 0.13% | viability, T/C (second compound 3.16 µM, first compound 0.03 µM) 1.16% | viability, T/C (second compound 3.16 µM, first compound 0.0949 µM) 0.06% | viability, T/C (second compound 3.16 µM, first compound 0.3 µM) 0.51% | viability, T/C (second compound 10 µM, first compound 0.03 µM) 0.83% | viability, T/C (second compound 10 µM, first compound 0.0949 µM) 0.14% | viability, T/C (second compound 10 µM, first compound 0.3 µM) 0.99%
inactive: viability, T/C (second compound 0.1 µM, first compound 0.000949 µM) 39.9% | viability, T/C (second compound 0.1 µM, first compound 0.003 µM) 34.3% | viability, T/C (second compound 0.1 µM, first compound 0.00949 µM) 23.6% | viability, T/C (second compound 0.316 µM, first compound 0.000949 µM) 37.5% | viability, T/C (second compound 0.316 µM, first compound 0.003 µM) 36.1% | viability, T/C (second compound 0.316 µM, first compound 0.00949 µM) 25.2% | viability, T/C (second compound 1 µM, first compound 0.000949 µM) 42.8% | viability, T/C (second compound 1 µM, first compound 0.003 µM) 31.7% | viability, T/C (second compound 1 µM, first compound 0.00949 µM) 23.8% | viability, T/C (second compound 3.16 µM, first compound 0.000949 µM) 43% | viability, T/C (second compound 3.16 µM, first compound 0.003 µM) 32% | viability, T/C (second compound 3.16 µM, first compound 0.00949 µM) 24.8% | viability, T/C (second compound 10 µM, first compound 0.000949 µM) 41% | viability, T/C (second compound 10 µM, first compound 0.003 µM) 30.1% | viability, T/C (second compound 10 µM, first compound 0.00949 µM) 23.3%

CC(C)CC(NC(=O)C(Cc1ccccc1)NC(=O)c1cnccn1)B(O)O (configuration not stated)
active: viability, T/C (compound 0.00316 µM) 3.38% and 2.52% | viability, T/C (compound 0.01 µM) 0.64% and 0.86% | viability, T/C (compound 0.0316 µM) 0.57% and 0.5% | viability, T/C (compound 0.1 µM) 0.31% and 0.36%
1.22 nM and 0.674 nM: IC50 (curve of compound)
inactive: viability, T/C (compound 0.000316 µM) 103% | viability, T/C (compound 0.001 µM) 59.9% and 22.5%
